Patent US20250134949A1, “PROMININ-1 PEPTIDE FOR TREATING LUNG INJURY” (Children's Medical Center Corporation, priority 2017, published 2025)
No end group written: not given here.

Legend:
[1] = Observation of ill effects during inhalation studies; assay type: in vivo, mouse; settings: 24-hour experimental period, delivered directly into the lungs; data not shown
Description: These and similar findings led many to believe that over-expression of VEGF in the lung could be curative in emphysema (54), however, enthusiasm for this type of therapy is tempered by clinical trials using systemic VEGF therapy (41) that were complicated by systemic and pulmonary toxicities including increased vascular permeability leading to hypotension (55) and tissue and lung edema (56, 57). […] The results outlined herein raise the possibility that a strategy to use PR1P to upregulate endogenous VEGF signaling in vivo may avoid toxicity seen with alternative and more conventional forms of VEGF therapy. […] PR1P could be used to avoid complications associated with constitutive VEGF over-expression or systemic VEGF treatment by stabilizing and potentiating the signaling of local endogenous VEGF. It will be important to clearly delineate the fate and pharmacokinetics of PR1P in evaluating its toxicity potential. Because of its small size, PR1P could also be more easily packaged as cargo inside nanometer or micron sized storage vehicles for tissue or cell targeted therapy.
8 week old female C3H/HENCrl (Charles River Laboratories, Cambridge, MA) mice (22±2 g) were placed in a whole-animal nebulization chamber (14×5×8 cm) and allowed to spontaneously inhale (20 min) nebulized LPS (Salmonela enterica, Sigma-Aldrich, St. Louis, MO), PR1P, scrambled peptide (SP), or VEGF. […]

VEGFR-2 = assay: Lung cell VEGFR-2 phosphorylation after inhalation of nebulized peptide (FACS); assay type: in vivo, mouse; settings: live mice, nebulized (20 min), lung cells harvested 30 minutes after end of inhalation; compared to SP
Description: VEGF mediates cell survival and apoptosis pathways via binding to and activation of VEGFR-2 and signaling through the PI3K/AKT pathway (13). […] To evaluate the effect of PR1P on VEGF signaling in the lung, both FACS and Western blotting were used to measure the levels of phosphorylated VEGFR-2 and AKT in the human lung respiratory epithelial cell line BEAS-2B in response to treatment with PR1P, scrambled peptide (SP), or VEGF. […] To determine whether PR1P also effectively modulated VEGF signaling in the lungs of animals (i.e. whether PR1P was bioactive in-vivo) live mice were treated with nebulized VEGF, SP or PR1P (20 min) and performed FACS analysis on lung cells harvested from treated animals 30 minutes after the end of inhalation. […]
Lungs were harvested from treated animals, cut into small pieces using surgical scissors and suspended and gently stirred in 3 ml serum free BEBM containing Liberase (2 mg ml, Sigma-Aldrich, St. Louis, MO). […] Cells were subsequently washed with FACS media and analyzed by a flow cytometer (BD Biosciences, San Jose, CA, USA) running FlowJo 7.2.2, software (Tomy Digital Biology. Tokyo, Japan).

VEGFR2 = assay: PR1P induced VEGFR2 phosphorylation in Beas-2B cells with or without SU5416 (FACS); assay type: cell-based, human; settings: then PR1P (125 μM) 20 min
Procedure: (§1) It was previously shown in part that PR1P binds VEGF, increases VEGF binding to VEGF receptors, and induces downstream VEGF signaling including the phosphorylation of VEGF receptor 2 and AKT. To determine whether PR1P mediation of VEGF signaling requires VEGFR2 activation, lung epithelial cells (Beas-2B) were treated with the specific VEGFR2 inhibitor SU5416 ([…]) or with vehicle alone as control for 24 hours and then exposed PR1P (125 μM) or vehicle for 20 min. Cells were then harvested and levels of phosphorylated VEGFR2 and AKT were assessed using FACS. […] These findings strongly support the notion that PR1P upregulation of VEGF signaling requires VEGFR-2 activation.
(§2) Serum-starved monolayers of Beas-2B cells were incubated in the presence or absence of SU5416 (20 μM) for 24 h on 10 cm tissue culture plates. After single washing with PBS, the cells were treated with 3 ml of starvation media in the presence of PR1P (125 […]) or vehicle as control for 20 minutes at 37° C. At the conclusion of the experiments, cells were prepared for FACS analysis using standard procedures. Cells were analyzed for levels of phosphorylated VEGFR2 and AKT using anti pAKT and pVEGFR2 antibodies (Cell signaling, Danvers MA).

AKT = assay: PR1P induced AKT phosphorylation in Beas-2B cells with or without SU5416 (FACS); assay type: cell-based, human; settings: then PR1P (125 μM) 20 min
Procedure: as §1, §2

[2] = in vivo; cited from earlier work

Molecule: DRVQRQTTTVVA [PR1P, DRVQRQTTTVVA]
- ill effects from therapy [1]: ill effects were not observed

Molecule: VEGF
- lung cell VEGFR-2 phosphorylation (VEGFR-2): increased pVEGFR2

Molecule: Cc1cc(C)c(/C=C2\C(=O)Nc3ccccc32)[nH]1 [SU5416]
- effect of PR1P on the phosphorylation level of VEGFR-2 in presence of inhibitor (VEGFR2): significantly reduced
- effect of PR1P on the phosphorylation level of AKT in presence of inhibitor (AKT): significantly reduced

Molecule: elastase: porcine pancreatic elastase (PPE) used intra-tracheally to induce emphysema phenotype
- half-life of exogenous elastase administered into the animal lungs [2]: approximately 50 minutes
